In patent US20260007639A1, “COMPOUNDS FOR THE TREATMENT OF NEUROMUSCULAR DISORDERS” (NMD PHARMA A/S, priority 2017, published 2026):

How the values were obtained:
rat soleus muscles = assay: Recovery of force in isolated rat soleus nerve-muscle preparations after 115 nM tubocurarine, 50 μM compound (Table 8); conditions: 40 mins exposure
Protocol: Force traces from a representative muscle stimulated to contract in 1) control condition before addition of neuromuscular blocking agent, 2) the force response to stimulation after 90 minutes incubation with Tubocurarine. […] The traces presented in FIG. 12A (1, 2, 3), correspond to the dotted lines in FIG. 12B, respectively.
Recovery of force is quantified as the percentage of the force prior to tubocurarine that is recovered by the compound.
The current invention relates to compounds that inhibit CIC-1 ion channels and increase muscle excitability and thereby improve muscle function in clinical conditions where muscle activation is failing. Such conditions result in loss of contractile function of skeletal muscle, weakness and excessive fatigue. In this series of experiments the compounds were tested for their ability to restore contractile function of isolated rat muscle when the neuromuscular transmission had been compromised akin to neuromuscular disorders.
Experimentally, soleus muscles from 4-5 wk old rats were isolated with the motor nerve remaining attached. The nerve-muscle preparations were mounted in experimental setups that enabled electrical stimulation of the motor nerve. Stimulation of the motor nerve led to activation of the muscle fibres and ensuing force production that was recorded.
After mounting the nerve-muscle preparation in the experimental setup, the contractile function of the muscle was initially assessed under the control conditions (FIG. 2A). […] The experimental condition mimics the failing neuromuscular transmission in a range of neuromuscular disorders. After addition of tubocurarine the contractile force declined over the next 90 mins to 10-50% of the control force. 50 μM of the test compound was then added and the contractile force recovered despite the continued presence of tubocurarine. To quantify the ability of the compound to restore force the percentage of the initial force that was restored was determined after 40 mins of compound exposure (FIG. 2B) and the point increase is reported in Table 8.

CIC-1 channels = molecular target: T1, CIC-1 channels (Rattus norvegicus, UniProt P35524); assay: Electrophysiological measurement of compound inhibition of CIC-1 (Gm) in rat soleus muscle fibres: EC50 (Table 7)
T1 sequence (P35524 1-994): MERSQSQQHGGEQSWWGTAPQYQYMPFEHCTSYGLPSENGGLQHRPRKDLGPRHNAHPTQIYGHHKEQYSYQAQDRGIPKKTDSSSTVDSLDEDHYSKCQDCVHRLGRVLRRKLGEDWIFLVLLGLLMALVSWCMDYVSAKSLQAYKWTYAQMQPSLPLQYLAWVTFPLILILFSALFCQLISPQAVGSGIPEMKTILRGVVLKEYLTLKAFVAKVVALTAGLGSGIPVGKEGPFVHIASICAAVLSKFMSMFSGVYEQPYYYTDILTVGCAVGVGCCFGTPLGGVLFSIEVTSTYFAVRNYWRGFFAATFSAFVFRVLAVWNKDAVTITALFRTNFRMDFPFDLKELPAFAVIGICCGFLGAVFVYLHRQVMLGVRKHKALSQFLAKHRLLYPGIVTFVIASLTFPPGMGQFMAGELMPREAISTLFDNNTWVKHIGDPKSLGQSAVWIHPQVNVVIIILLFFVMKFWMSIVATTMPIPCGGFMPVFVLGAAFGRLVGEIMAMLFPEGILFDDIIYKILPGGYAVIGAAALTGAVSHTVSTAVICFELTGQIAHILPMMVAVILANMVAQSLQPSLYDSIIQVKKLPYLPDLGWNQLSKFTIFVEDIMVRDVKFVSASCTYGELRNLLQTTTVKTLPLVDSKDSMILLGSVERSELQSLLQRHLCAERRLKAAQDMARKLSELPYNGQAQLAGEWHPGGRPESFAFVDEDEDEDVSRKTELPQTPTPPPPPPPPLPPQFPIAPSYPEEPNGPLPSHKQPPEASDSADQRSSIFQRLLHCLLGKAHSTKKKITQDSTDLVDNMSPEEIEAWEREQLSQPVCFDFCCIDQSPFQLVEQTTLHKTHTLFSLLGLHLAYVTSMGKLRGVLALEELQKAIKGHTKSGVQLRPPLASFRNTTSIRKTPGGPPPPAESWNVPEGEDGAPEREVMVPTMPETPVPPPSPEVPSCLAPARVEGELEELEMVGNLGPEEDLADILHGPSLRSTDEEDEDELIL

Structure (SMILES) | Point increase (%) of initial force that was restored (rat soleus muscles) [%] | EC50 (CIC-1 channels) [µM]
C[C@@H](Oc1ccc(Br)cc1-c1ccno1)C(=O)O [(2R)-A-22] | −3 | > 80
CC[C@H](Oc1ccc(Br)cc1-c1ccno1)C(=O)O [Compound A-1, (2S)-2-[4-bromo-2-(1,2-oxazol-5-yl)phenoxy]butanoic acid] | 18 | 12.4
CC(C)[C@H](Oc1ccc(Br)cc1-c1ccon1)C(=O)O [Compound A-3, (2S)-2-[4-bromo-2-(1,2-oxazol-3-yl)phenoxy]-3-methylbutanoic acid] |  | 11.6
C[C@H](Oc1ccc(Br)cc1-c1cc(C2CC2)on1)C(=O)O [Compound A-11, (2S)-2-[4-bromo-2-(5-cyclopropyl-1,2-oxazol-3-yl)phenoxy]propanoic acid] | 19 | 10.3
O=C(O)[C@H](CF)Oc1ccc(Br)cc1-c1ccno1 [Compound A-21, (2R)-2-[4-bromo-2-(1,2-oxazol-5-yl)phenoxy]-3-fluoropropanoic acid] | 13 | 
CC[C@H](Oc1ccc(Cl)cc1-c1ccon1)C(=O)O [Compound A-35, (2S)-2-[4-chloro-2-(1,2-oxazol-3-yl)phenoxy]butanoic acid] | 28 | 10.4
O=C(O)[C@H](CF)Oc1ccc(Cl)cc1-c1ccon1 [Compound A-39, (2R)-2-[4-chloro-2-(1,2-oxazol-3-yl)phenoxy]-3-fluoropropanoic acid] | 36 | 5.2
C[C@H](Oc1ccc(Cl)cc1-c1cocn1)C(=O)O [Compound A-46, (2S)-2-[4-chloro-2-(1,3-oxazol-4-yl)phenoxy]propanoic acid] | 11 | 
O=C(O)[C@H](CF)Oc1cc(F)c(Cl)cc1-c1ccon1 [Compound A-47, (2R)-2-[4-chloro-5-fluoro-2-(1,2-oxazol-3-yl)phenoxy]-3-fluoropropanoic acid] | 19 | 7.7
CC[C@H](Oc1ccc(Cl)cc1-c1ccno1)C(=O)O [Compound A-49, (2S)-2-[4-chloro-2-(1,2-oxazol-5-yl)phenoxy]butanoic acid] | 16 | 
O=C(O)[C@H](CC1CC1)Oc1ccc(Cl)cc1-c1ccno1 [Compound A-52, (2S)-2-[4-chloro-2-(1,2-oxazol-5-yl)phenoxy]-3-cyclopropylpropanoic acid] | 11 | 
O=C(O)[C@H](CF)Oc1ccc(Br)cc1-c1csnn1 [Compound A-66, (2R)-2-[4-bromo-2-(1,2,3-thiadiazol-4-yl)phenoxy]-3-fluoropropanoic acid] | 13 | 
CC[C@H](Oc1ccc(Br)cc1-c1csnn1)C(=O)O [Compound A-67, (2S)-2-[4-bromo-2-(1,2,3-thiadiazol-4-yl)phenoxy]butanoic acid] | 13 | 
O=C(O)[C@H](CC1CC1)Oc1ccc(Br)cc1-c1csnn1 [Compound A-75, (2S)-2-[4-bromo-2-(1,2,3-thiadiazol-4-yl)phenoxy]-3-cyclopropylpropanoic acid] | 10 | 
O=C(O)COc1ccc(Cl)cc1-c1ccno1 [Compound A-78, 2-[4-chloro-2-(1,2-oxazol-5-yl)phenoxy]acetic acid] | 17 | 
O=C(O)COc1ccc(Br)cc1-c1csnn1 [Compound A-79, 2-[4-bromo-2-(1,2,3-thiadiazol-4-yl)phenoxy]acetic acid] | 17 | 
